Experiment [1] in a line: Inhibition of wild type EGFR in mouse BAF3 cells assessed as reduction in cell proliferation incubated for 3 days by celltiter-glo assay. The class given is cell-based. As to conditions: BaF3, 72 h. A general note: ATP-based viability assays read luminescence as a measure of living cells.
Experiment [2] in a line: Inhibition of EGFR del19/T790M/C797S triple mutant in mouse BAF3 cells assessed as reduction in cell proliferation incubated for 3 days by celltiter-glo assay. The experiment is classed as cell-based. As to conditions: BaF3, 72 h.
In experiment [3] the target is Epidermal growth factor receptor (Homo sapiens, UniProt P00533). The experiment can be described thus: Inhibition of wild type EGFR (unknown origin) in presence of ATP by FRET assay.
Sequence of Epidermal growth factor receptor (Homo sapiens, UniProt P00533) (P00533 whole entry): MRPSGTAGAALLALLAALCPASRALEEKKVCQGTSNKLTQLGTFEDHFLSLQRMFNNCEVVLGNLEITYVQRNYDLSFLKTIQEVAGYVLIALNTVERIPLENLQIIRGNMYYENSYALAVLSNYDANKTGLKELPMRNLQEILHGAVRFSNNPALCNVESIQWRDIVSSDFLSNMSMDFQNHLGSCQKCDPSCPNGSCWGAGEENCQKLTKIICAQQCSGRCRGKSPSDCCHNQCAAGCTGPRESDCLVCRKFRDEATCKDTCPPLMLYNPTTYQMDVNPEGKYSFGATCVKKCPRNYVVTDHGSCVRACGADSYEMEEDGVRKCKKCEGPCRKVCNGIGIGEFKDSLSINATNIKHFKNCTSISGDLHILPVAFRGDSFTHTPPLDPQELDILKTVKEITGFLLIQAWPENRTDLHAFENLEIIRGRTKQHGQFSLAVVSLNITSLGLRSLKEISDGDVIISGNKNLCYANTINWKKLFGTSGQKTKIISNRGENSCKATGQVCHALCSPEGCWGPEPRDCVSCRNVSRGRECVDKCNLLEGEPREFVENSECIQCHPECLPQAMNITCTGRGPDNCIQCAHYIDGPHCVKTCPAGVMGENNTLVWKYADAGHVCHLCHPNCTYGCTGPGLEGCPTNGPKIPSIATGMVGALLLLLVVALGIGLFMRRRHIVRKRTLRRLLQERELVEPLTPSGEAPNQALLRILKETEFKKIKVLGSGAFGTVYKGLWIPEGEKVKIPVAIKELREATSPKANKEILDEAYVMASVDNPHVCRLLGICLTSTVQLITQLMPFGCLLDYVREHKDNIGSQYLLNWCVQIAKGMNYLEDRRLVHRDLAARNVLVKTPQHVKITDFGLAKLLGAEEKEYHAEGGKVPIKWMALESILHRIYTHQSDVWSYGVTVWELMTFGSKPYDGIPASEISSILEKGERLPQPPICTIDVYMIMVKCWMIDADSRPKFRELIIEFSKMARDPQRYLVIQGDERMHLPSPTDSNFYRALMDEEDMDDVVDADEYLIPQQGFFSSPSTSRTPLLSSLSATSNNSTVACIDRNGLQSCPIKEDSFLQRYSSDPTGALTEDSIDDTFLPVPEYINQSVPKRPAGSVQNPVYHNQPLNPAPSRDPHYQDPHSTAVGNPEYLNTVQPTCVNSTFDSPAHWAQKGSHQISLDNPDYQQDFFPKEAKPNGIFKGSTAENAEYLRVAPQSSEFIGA
Experiment [4] has as its system A-431. Kind of experiment: Antiproliferative activity against human A-431 cells harboring wild type EGFR incubated for 72 hrs by SRB assay. The class given is functional, cell-based. As to conditions: A-431, 72 h.
The test system of experiment [5] is PC-9. Kind of experiment: Antiproliferative activity against human PC-9 cells harboring EGFR Del19/T790M/C797S mutant incubated for 72 hrs by SRB assay. The class given is functional, cell-based. As to conditions: PC-9, 72 h. A general note: The SRB assay estimates cell density from bound dye.
In experiment [6] the test system is NCI-H1975. The experiment can be described thus: Antiproliferative activity against human NCI-H1975 cells harboring EGFR L858R/T790M mutant incubated for 72 hrs by SRB assay. The class given is functional, cell-based. As to conditions: NCI-H1975, 72 h.
For experiment [7], the system named is HCC827. The experiment can be described thus: Antiproliferative activity against human HCC827 cells harboring EGFR Del19 mutant incubated for 72 hrs by SRB assay. The class given is functional, cell-based. As to conditions: HCC827, 72 h.
Experiment [8] concerns the target Epidermal growth factor receptor (Homo sapiens, UniProt P00533, C797S/EX19DEL/T790M). Kind of experiment: Inhibition of EGFR del19/T790M/C797S triple mutant (unknown origin) in presence of ATP by FRET assay.
The target in experiment [9] is Epidermal growth factor receptor (Homo sapiens, UniProt P00533, C797S/L858R/T790M). The experiment can be described thus: Inhibition of EGFR L858R/T790M/C797S triple mutant (unknown origin) in presence of ATP by FRET assay.
Sequence of Epidermal growth factor receptor (Homo sapiens, UniProt P00533, C797S/L858R/T790M) (P00533 25-1210 T790M/C797S/L858R limits assumed): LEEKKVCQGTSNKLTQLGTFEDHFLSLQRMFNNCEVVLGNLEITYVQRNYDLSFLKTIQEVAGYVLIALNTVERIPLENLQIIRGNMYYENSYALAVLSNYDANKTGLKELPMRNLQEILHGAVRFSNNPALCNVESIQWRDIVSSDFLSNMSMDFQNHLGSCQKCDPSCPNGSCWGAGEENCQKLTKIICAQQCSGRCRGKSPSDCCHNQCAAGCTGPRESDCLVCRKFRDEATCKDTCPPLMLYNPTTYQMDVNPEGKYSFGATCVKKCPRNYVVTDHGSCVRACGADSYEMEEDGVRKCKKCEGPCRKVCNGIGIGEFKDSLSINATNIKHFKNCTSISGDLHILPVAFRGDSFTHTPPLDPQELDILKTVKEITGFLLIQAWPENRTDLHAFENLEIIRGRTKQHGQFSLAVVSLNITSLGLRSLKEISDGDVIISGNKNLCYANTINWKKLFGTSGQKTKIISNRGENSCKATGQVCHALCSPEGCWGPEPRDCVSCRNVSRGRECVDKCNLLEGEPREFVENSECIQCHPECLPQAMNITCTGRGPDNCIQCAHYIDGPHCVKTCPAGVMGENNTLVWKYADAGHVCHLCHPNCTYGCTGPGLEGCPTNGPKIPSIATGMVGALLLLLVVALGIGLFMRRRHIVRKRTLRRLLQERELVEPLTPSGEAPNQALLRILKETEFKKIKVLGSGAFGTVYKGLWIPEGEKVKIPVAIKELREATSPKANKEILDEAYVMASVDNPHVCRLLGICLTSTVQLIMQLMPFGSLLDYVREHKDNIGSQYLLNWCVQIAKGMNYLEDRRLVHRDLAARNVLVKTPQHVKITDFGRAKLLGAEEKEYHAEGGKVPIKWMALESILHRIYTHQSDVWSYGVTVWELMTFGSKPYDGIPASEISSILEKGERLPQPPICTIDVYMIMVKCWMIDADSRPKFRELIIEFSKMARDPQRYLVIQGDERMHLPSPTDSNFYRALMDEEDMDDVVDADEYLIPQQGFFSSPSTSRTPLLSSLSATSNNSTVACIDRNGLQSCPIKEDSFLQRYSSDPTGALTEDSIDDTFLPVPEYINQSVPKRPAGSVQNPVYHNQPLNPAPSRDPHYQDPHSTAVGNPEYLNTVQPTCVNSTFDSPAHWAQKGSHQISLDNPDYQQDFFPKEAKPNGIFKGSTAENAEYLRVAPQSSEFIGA
Experiment [10] has as its system NCI-H1975. Kind of experiment: Antiproliferative activity against human NCI-H1975 cells harboring EGFR L858R/T790M/C797S mutant incubated for 72 hrs by SRB assay. The experiment is classed as functional, cell-based. As to conditions: NCI-H1975, 72 h.
A short description of experiment [11]: Inhibition of AKT phosphorylation in human A-431 cells harboring wild type EGFR incubated for 6 hrs by Western blot analysis. The experiment is classed as cell-based. As to conditions: A-431, 6 h. (In general: A western blot detects proteins with antibodies after separation by electrophoresis.)
Experiment [12] in a line: Inhibition of ERK phosphorylation in human A-431 cells harboring wild type EGFR incubated for 6 hrs by Western blot analysis. The experiment is classed as cell-based. As to conditions: A-431, 6 h.
A short description of experiment [13]: Inhibition of ERK phosphorylation in human PC-9 cells harboring Del19/T790M/C797S mutant incubated for 6 hrs by Western blot analysis. As to conditions: PC-9, 6 h. The experiment is classed as cell-based.
A short description of experiment [14]: Inhibition of AKT phosphorylation in human PC-9 cells harboring Del19/T790M/C797S mutant incubated for 6 hrs by Western blot analysis. The experiment is classed as cell-based. As to conditions: PC-9, 6 h.

Sequence of Epidermal growth factor receptor (Homo sapiens, UniProt P00533, C797S/EX19DEL/T790M) (P00533 whole entry, looked up, stated change not applied): as the sequence (P00533 whole entry) above

For the molecule `CN(c1ccccc1Nc1nc(Nc2ccc(N3CCCCC3)c(F)c2)nc2[nH]ccc12)S(C)(=O)=O`, the IC50 in experiment [1] came out at 739 nM; in experiment [2], 741 nM.

Regarding `CC(C)N1CCN(c2ccc(Nc3nc(Nc4ccccc4N(C)S(C)(=O)=O)c4cc[nH]c4n3)cc2F)CC1`, the results for the concentration for half-maximal inhibition (IC50) in [1] and in experiment [2] were 670 nM and 157 nM, respectively.

Take `CN(c1ccccc1Nc1nc(Nc2ccc(N3CCCCC3)cc2)nc2[nH]ccc12)S(C)(=O)=O`: the values for the IC50 in experiment [1] and in [2] were 1240 nM and 566 nM, respectively.

Regarding `CN1CCN(c2ccc(Nc3nc(Nc4ccccc4N(C)S(C)(=O)=O)c4cc[nH]c4n3)cc2F)CC1`, the concentration for half-maximal inhibition (IC50) came to 1530 nM in experiment [3]; 267 nM in [1]; 22.5 nM in experiment [2]; 263 nM in experiment [4]; 208 nM in experiment [5]; 185 nM in experiment [6]. Besides, the concentration for half-maximal inhibition (IC50) came out at 230 nM in experiment [7], 4 nM in experiment [8], 20.2 nM in experiment [9] and 289 nM in [10].

As for `CN1CCN(c2ccc(Nc3nc(Nc4ccccc4N(C)S(C)(=O)=O)c4cc[nH]c4n3)cc2Cl)CC1`, the IC50 came out at 47.4 nM in experiment [1] and 53.8 nM in [2].

`CN1CCN(c2ccc(Nc3nc(Nc4ccccc4N(C4CC4)S(C)(=O)=O)c4cc[nH]c4n3)cc2F)CC1`: the IC50 in [1] was determined as 273 nM; in [2], 55.9 nM.

In the case of `CCS(=O)(=O)N(C)c1ccccc1Nc1nc(Nc2ccc(N3CCN(C)CC3)c(F)c2)nc2[nH]ccc12`, the IC50 was 238 nM in experiment [1] and 16.4 nM in experiment [2].

In the case of `COc1cc(N2CCN(C)CC2)ccc1Nc1nc(Nc2ccccc2N(C)S(C)(=O)=O)c2cc[nH]c2n1`, the IC50 was determined as 3170 nM in experiment [1] and 329 nM in experiment [2].

In the case of `CC(C)N(c1ccccc1Nc1nc(Nc2ccc(N3CCN(C)CC3)c(F)c2)nc2[nH]ccc12)S(C)(=O)=O`, the IC50 in experiment [1] amounted to 307 nM; in [2], 71.2 nM.

Take `CN1CCN(c2ccc(Nc3nc(Nc4ccccc4N(C)S(=O)(=O)C4CC4)c4cc[nH]c4n3)cc2F)CC1`: the IC50 was found to be 214 nM in experiment [1] and 29.6 nM in [2].

In the case of `CN1CCN(C2CCN(c3ccc(Nc4nc(Nc5ccccc5N(C)S(C)(=O)=O)c5cc[nH]c5n4)cc3F)CC2)CC1`, the IC50 in experiment [3] amounted to 4580 nM; in experiment [1], 254 nM; in [2], 11.4 nM; in experiment [4], 317 nM; in experiment [5], 262 nM; in experiment [6], 211 nM. In addition, the IC50 in [7] is 370 nM; in [8], 4 nM; in experiment [9], 4.9 nM; in [10], 196 nM.

In the case of `CN(c1ccccc1Nc1nc(Nc2ccc(N3CCN(C(=O)OC(C)(C)C)CC3)c(F)c2)nc2[nH]ccc12)S(C)(=O)=O`, the concentration for half-maximal inhibition (IC50) in experiment [1] amounted to 2400 nM; in experiment [2], 426 nM.

As to `CN(c1ccccc1Nc1nc(Nc2ccc(N3CCC(N4CCN(C5CC5)CC4)CC3)c(F)c2)nc2[nH]ccc12)S(C)(=O)=O`, the IC50 in experiment [1] is 815 nM; in experiment [2], 213 nM.

As for `COc1cc(Nc2nc(Nc3ccccc3N(C)S(C)(=O)=O)c3cc[nH]c3n2)ccc1N1CCN(C)CC1`, the IC50 in experiment [1] came out at 41.4 nM; in experiment [2], 36.7 nM.

On to `CN1CCN(c2ccc(Nc3nc(Nc4ccccc4NS(C)(=O)=O)c4cc[nH]c4n3)cc2F)CC1`, for which the results for the half-maximal inhibitory concentration (IC50) in [1] and in experiment [2] were 2640 nM and 125 nM, respectively.

In the case of `CC(C)N1CCN(C2CCN(c3ccc(Nc4nc(Nc5ccccc5N(C)S(C)(=O)=O)c5cc[nH]c5n4)cc3F)CC2)CC1`, the 50% inhibitory concentration (IC50) in experiment [1] came to 620 nM; in [2] it was 82.4 nM.

In the case of `CN(c1ccccc1Nc1nc(Nc2ccc(N3CCN(C4CC4)CC3)c(F)c2)nc2[nH]ccc12)S(C)(=O)=O`, the IC50 was 790 nM in [1] and 383 nM in [2].

With `CC(C)S(=O)(=O)N(C)c1ccccc1Nc1nc(Nc2ccc(N3CCN(C)CC3)c(F)c2)nc2[nH]ccc12`, the IC50 in experiment [1] was 185 nM; in [2], 49 nM.

For the molecule `Cc1cc(Nc2nc(Nc3ccccc3N(C)S(C)(=O)=O)c3cc[nH]c3n2)ccc1N1CCN(C)CC1`, the IC50 was 41.7 nM in experiment [1] and 30.8 nM in experiment [2].

As to `CCCN1CCN(C2CCN(c3ccc(Nc4nc(Nc5ccccc5N(C)S(C)(=O)=O)c5cc[nH]c5n4)cc3F)CC2)CC1`, the results for the IC50 in [1] and in experiment [2] were 754 nM and 84.2 nM, respectively.

`CCN(c1ccccc1Nc1nc(Nc2ccc(N3CCN(C)CC3)c(F)c2)nc2[nH]ccc12)S(C)(=O)=O`: the concentration for half-maximal inhibition (IC50) in [1] stood at 203 nM; in experiment [2], 36.6 nM.

On to `CCCN1CCN(c2ccc(Nc3nc(Nc4ccccc4N(C)S(C)(=O)=O)c4cc[nH]c4n3)cc2F)CC1`, for which the results for the IC50 in [1] and in experiment [2] were 687 nM and 142 nM, respectively.

Consider `CN1CCN(c2ccc(Nc3nc(Nc4ccccc4N(C)S(C)(=O)=O)c4cc[nH]c4n3)cc2)CC1`, for which the IC50 is 120 nM in [1] and 28.4 nM in [2].

Take `CN1CCN(c2ccc(Nc3nc(Nc4ccccc4N(C)S(C)(=O)=O)c4cc[nH]c4n3)c(F)c2)CC1`: the results for the IC50 in experiment [1] and in experiment [2] were 202 nM and 157 nM, respectively.

`COc1cc(N2CCC(N3CCN(C)CC3)CC2)ccc1Nc1ncc(Cl)c(Nc2ccccc2P(C)(C)=O)n1` [BRIGATINIB]: the half-inhibitory concentration (IC50) in [1] came to 782 nM; in experiment [11], 3330 nM; in [2] it was 227 nM; in experiment [4] it was 540 nM; in experiment [12], 5830 nM; in experiment [5], 838 nM. The IC50 in [6] was 380 nM; in experiment [7] it was 282 nM; in experiment [13], 3730 nM; in [10] it was 1130 nM; in experiment [14], 984 nM.

As for `C=CC(=O)Nc1cc(Nc2nccc(-c3cn(C)c4ccccc34)n2)c(OC)cc1N(C)CCN(C)C` [OSIMERTINIB], the results for the IC50 in [1] and in experiment [2] were 13.5 nM and 1240 nM, respectively.

For orientation: IC50 means the concentration that gives 50% inhibition.

The values are drawn from ChEMBL document CHEMBL5634119, “Design and synthesis of 4th generation EGFR inhibitors against human triple (Del19/T790M/C797S) mutation” (Eur J Med Chem, 2023).
